The source of these data is PMC5814268, “Antitumor activity of HPA3P through RIPK3-dependent regulated necrotic cell death in colon cancer” (Oncotarget, 2018).

What all share (format): cell-based, human
The test system of one data set is colon cancer cell lines. In words: MTT assay, cell viability in colon cancer cell lines. The conditions noted are these: comparison of HPA3P with anticancer drugs. How it is done: (§1) The cells were plated in 96-well plates at a density of 2 × 10^4 cells per well. After incubating overnight, the cells were treated with HPA3, HPA3P, HPA3P2, oxaliplatin, and 5-FU at various concentrations. After the cells had incubated for 6 h or 24 h, the culture medium was replaced with fresh medium. Twenty microlitres of a 5 mg/ml stock solution of 3-(4,5-dimetylthiazol-2-yl)-2,5-diphenyltetrazolium bromide (Sigma Aldrich) was added to each well, and the cells were incubated for 1 h at 37°C in a humidified atmosphere of 5% CO2. After removal of the supernatant, 100 μl of DMSO was added to each well. The plates were subsequently incubated on a horizontal shaker for 20 min at room temperature, and the optical density was measured at an absorbance of 570 nm using a microplate reader (SPECTRA MAX PLUS, Molecular Devices, CA, USA).

In the next data set the test system is RIPK3. Description: RIPK3 expression, western blot in HCT116 p53+/+ cells. The conditions noted are these: 3 μM GSK΄872 pretreatment, Figure 5C. How it is done:
Figure 5 Low concentrations of HPA3P induce RIPK3-dependent necroptosis in HCT116 p53^+/+ cells (A) HCT116 p53^+/+ cells were treated with HPA3P for 6 h. The cell lysates were analysed for RIPK1 and RIPK3 expression by western blotting. The cells were pretreated with 30 μM Nec-1s (B) or 3 μM GSK΄872 (C) for 2 h and (D) transfected with negative-control (scramble), RIPK1, RIPK3, and MLKL siRNA for 24 h. The cells were subsequently treated with HPA3P. HPA3P-induced cytotoxicity was measured by MTT assay. (B–D) The cells were treated with Nec-1s or GSK΄872, and transfected with siRNA for 24 h. The cell lysates were analysed by western blot analysis. (E) The cells were treated with 3 μM GSK΄872 for 2 h and subsequently treated with 30 μM HPA3P for 6 h. The cells were stained with PI for flow cytometric analysis. […] RIPK3 expression was analysed by western blotting. […] Cell viability was measured by MTT assay. ^*p < 0.05, ^**p < 0.01 indicate a significant difference between the indicated groups. […] (H) The colon cancer cell lysates used in this study were analysed by western blotting. […]
The cells were plated in 6-well plates at a density of 1 × 10^6 cells per well. […] After incubating for 6 h or 24 h, the cells were scraped, and the proteins were quantified by the Bradford method. […] The reaction was detected using a Clarity™ Western ECL Substrate (BioRad, CA, USA). […]
A general note: Immunoblotting shows a protein as a band on a membrane.

Data set [1] has as its system HCT116 p53+/+ cells. Description: MTT assay, HCT116 p53+/+. The conditions noted are these: for restoration of cell viability in HPA3P-treated cells: pretreated with 30 μM Nec-1s or 3 μM GSK΄872 for 2 h, then HPA3P, Figure 5B-5C. On the procedure:
The cell lysates were analysed for RIPK1 and RIPK3 expression by western blotting. […] The cells were subsequently treated with HPA3P. HPA3P-induced cytotoxicity was measured by MTT assay. […] The cell lysates were analysed by western blot analysis. […] The cells were stained with PI for flow cytometric analysis. (F) The cells were treated with 30 μM HPA3P for the indicated times. RIPK3 expression was analysed by western blotting. […] Cell viability was measured by MTT assay. ^*p < 0.05, ^**p < 0.01 indicate a significant difference between the indicated groups. NS, not significant. (H) The colon cancer cell lysates used in this study were analysed by western blotting. (I) Schematic diagram of HPA3P-induced necroptosis.
as §1

Data set [2] concerns HCT116 p53+/+ cells. In words: PI staining analysed by flow cytometry, HCT116 p53+/+. The conditions noted are these: 3 μM GSK΄872 for 2 h and/or 30 μM HPA3P for 6 h, Figure 5E. On the procedure:
Figure 3 HPA3P-induced necrosis and morphological changes in human colon cancer cell lines All cell lines were treated with HPA3P for 30 min and then stained with Hoechst 33342/PI or PI alone. (A) Pictures of Hoechst 33342/PI-stained cells were taken using an Olympus IX71 fluorescence microscope (magnification LCAch N 20X). (B) PI-stained cells were analysed by flow cytometry. (C) Morphological changes in colon cancer cells treated with HPA3P for 5 min were observed using an Olympus IX71 light microscope (magnification LUCPlaFL N 40X). The black arrows indicate membrane blebs. […] Morphological changes were observed under an Olympus IX71 fluorescence microscope (magnification LUCPlaFL N 40X). […]
Figure 5 Low concentrations of HPA3P induce RIPK3-dependent necroptosis in HCT116 p53^+/+ cells (A) HCT116 p53^+/+ cells were treated with HPA3P for 6 h. The cell lysates were analysed for RIPK1 and RIPK3 expression by western blotting. […] HPA3P-induced cytotoxicity was measured by MTT assay. […] The cell lysates were analysed by western blot analysis. […] RIPK3 expression was analysed by western blotting. […] Cell viability was measured by MTT assay. ^*p < 0.05, ^**p < 0.01 indicate a significant difference between the indicated groups. […] (H) The colon cancer cell lysates used in this study were analysed by western blotting. […]
In general terms: In flow cytometry, cells or beads pass a laser one at a time.

The next data set concerns HT-29 cells. Description: MTT assay, HT-29. Particulars: HT-29, 24 h, Figure 4E. On the procedure: as §1
(In general: Formazan colour is commonly taken as a measure of viable cells.)

Another data set deals with SW480 cells. Description: MTT assay, SW480. The conditions noted are these: SW480, 24 h, Figure 4E. How it is done:
as §1

A further data set relates to LoVo cells. Description: MTT assay, LoVo. The conditions noted are these: 24 h, Figure 4E. On the procedure: as §1
Data set [3] deals with cleaved-caspase 3 and cleaved-PARP. In words: Western blot for apoptosis markers in colon cancer cell lines. The conditions noted are these: whole-cell lysates, 24 h, staurosporine as positive control, Figure 1C. On the procedure: The cells were plated in 6-well plates at a density of 1 × 10^6 cells per well. After incubating overnight, the cells were treated with HPA3P at the indicated concentration. After incubating for 6 h or 24 h, the cells were scraped, and the proteins were quantified by the Bradford method. The proteins were resolved on SDS-PAGE and transferred to PVDF membranes (Millipore, Bedford, USA). The blots were blocked with TBST containing 5% skim milk for 1 h, after which the membranes were incubated overnight at 4°C with primary antibodies against cleaved caspase-3 (#9664), PARP (#9542, Cell Signaling Technology, MA, USA), HMGB1 (ab18256, Abcam, Cambridge, UK), and GAPDH (SC-25778, Santa Cruz, CA, USA). The blots were then washed with TBST buffer and incubated with a secondary horseradish peroxidase-conjugated antibody (Santa Cruz, CA, USA). The reaction was detected using a Clarity™ Western ECL Substrate (BioRad, CA, USA).

In the case of `O=c1[nH]cc(F)c(=O)[nH]1` [5-FU], the cell viability entry with colon cancer cell lines (6 h, Figure 4D) is “no effect on cell viability”; with colon cancer cell lines (24 h, Figure 4E), “no effect on cell viability”.

`CC(C)S(=O)(=O)c1ccc2nccc(Nc3ccc4scnc4c3)c2c1` [GSK΄872]: the “effect on HPA3P-induced increases in RIPK3 expression” value with RIPK3 is reported as “inhibited”. For the same compound, the “protective effect on HPA3P-mediated cytotoxicity” value in the data set with HCT116 p53+/+ cells [1] (pretreated with 3 μM GSK΄872 for 2 h, then HPA3P for 24 h, Figure 5G) is “inhibited HPA3P-induced cytotoxicity”. For the same compound, in the data set on HCT116 p53+/+ cells [1], the “restoration of cell viability in HPA3P-treated cells” value is given as “restored cell viability”. In the data set with HCT116 p53+/+ cells [2], the “PI staining, gate P1” value is on record as 91.47% and the “PI staining, gate P2” value was 7.34%.

Take `CN1C(=O)NC(Cc2c[nH]c3c(Cl)cccc23)C1=O` (centres unmarked) [Nec-1s]: the “restoration of cell viability in HPA3P-treated cells” value with HCT116 p53+/+ cells [1] is given as “did not restore cell viability”.

Consider `O=C1[O][Pt]2([NH][C@@H]3CCCC[C@H]3[NH]2)[O]C1=O` [oxaliplatin, Oxaliplatin], for which the cell viability entry with HT-29 cells was “reduced cell viability only slightly”; in the data set on HCT116 p53+/+ cells [1] (24 h, Figure 4E) it was “significant decrease in cell viability”; in the data set on SW480 cells it was “significant decrease in cell viability”; in the data set on LoVo cells it was “significant decrease in cell viability”; in the data set with colon cancer cell lines (6 h, Figure 4D) it was “no effect on cell viability”.

With `CN[C@@H]1C[C@H]2O[C@@](C)([C@@H]1OC)n1c3ccccc3c3c4c(c5c6ccccc6n2c5c31)C(=O)NC4` [staurosporine], the “cleaved-caspase 3 and cleaved-PARP” value in data set [3] was “detected”.
